Assay results published in ChEMBL document CHEMBL3886432, “Purinylpyridinylamino-2,4-difluorophenyl sulfonamide derivative, pharmaceutically acceptable salt thereof, preparation method thereof, and pharmaceutical composition with inhibitory activity against Raf kinase, containing same as active ingredient” (2015).

Molecular target: Serine/threonine-protein kinase B-raf (Homo sapiens, UniProt P15056)
Experiment: The solutions in the tube were collected on the bottom via centrifugation and were reacted at 30° C. for 30 minutes.

Serine/threonine-protein kinase B-raf, sequence (P15056 whole entry): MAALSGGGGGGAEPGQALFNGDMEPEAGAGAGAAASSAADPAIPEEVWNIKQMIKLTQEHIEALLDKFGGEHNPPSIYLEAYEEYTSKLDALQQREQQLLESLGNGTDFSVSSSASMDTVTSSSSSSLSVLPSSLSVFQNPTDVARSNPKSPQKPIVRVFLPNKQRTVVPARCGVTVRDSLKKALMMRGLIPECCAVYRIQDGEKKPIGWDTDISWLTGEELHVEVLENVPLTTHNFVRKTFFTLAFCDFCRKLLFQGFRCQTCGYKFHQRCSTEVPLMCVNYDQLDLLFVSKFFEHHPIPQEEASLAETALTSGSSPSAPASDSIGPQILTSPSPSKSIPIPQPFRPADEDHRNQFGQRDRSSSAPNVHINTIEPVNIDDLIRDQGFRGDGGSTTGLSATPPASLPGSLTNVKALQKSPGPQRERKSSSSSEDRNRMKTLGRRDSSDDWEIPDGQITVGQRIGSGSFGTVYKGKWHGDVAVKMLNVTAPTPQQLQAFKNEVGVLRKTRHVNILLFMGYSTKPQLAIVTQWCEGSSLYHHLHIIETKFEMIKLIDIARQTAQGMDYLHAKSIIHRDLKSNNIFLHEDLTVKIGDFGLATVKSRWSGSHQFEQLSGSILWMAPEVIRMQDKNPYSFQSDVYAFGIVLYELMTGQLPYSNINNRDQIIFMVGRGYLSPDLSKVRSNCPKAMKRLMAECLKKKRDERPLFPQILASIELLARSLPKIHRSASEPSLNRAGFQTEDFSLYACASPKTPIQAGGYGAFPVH

Structure (SMILES): O=S(=O)(Nc1ccc(F)c(Nc2ncccc2-c2ncnc3[nH]cnc23)c1F)c1ccc(Cl)s1
- IC50: 20 nM
